Reference: US8119681B2, “2-[1-phenyl-5-hydroxy or methoxy-4alpha-methyl-hexahydrocyclopenta [ƒ]indazole-5-YL]ethyl phenyl derivatives as glucocorticoid receptor ligands” (Merck Sharp & Dohme Corp., priority 2006, dated 2012)

Target: T1, human GR (Homo sapiens, UniProt P04150)
T1 sequence (P04150 1-777): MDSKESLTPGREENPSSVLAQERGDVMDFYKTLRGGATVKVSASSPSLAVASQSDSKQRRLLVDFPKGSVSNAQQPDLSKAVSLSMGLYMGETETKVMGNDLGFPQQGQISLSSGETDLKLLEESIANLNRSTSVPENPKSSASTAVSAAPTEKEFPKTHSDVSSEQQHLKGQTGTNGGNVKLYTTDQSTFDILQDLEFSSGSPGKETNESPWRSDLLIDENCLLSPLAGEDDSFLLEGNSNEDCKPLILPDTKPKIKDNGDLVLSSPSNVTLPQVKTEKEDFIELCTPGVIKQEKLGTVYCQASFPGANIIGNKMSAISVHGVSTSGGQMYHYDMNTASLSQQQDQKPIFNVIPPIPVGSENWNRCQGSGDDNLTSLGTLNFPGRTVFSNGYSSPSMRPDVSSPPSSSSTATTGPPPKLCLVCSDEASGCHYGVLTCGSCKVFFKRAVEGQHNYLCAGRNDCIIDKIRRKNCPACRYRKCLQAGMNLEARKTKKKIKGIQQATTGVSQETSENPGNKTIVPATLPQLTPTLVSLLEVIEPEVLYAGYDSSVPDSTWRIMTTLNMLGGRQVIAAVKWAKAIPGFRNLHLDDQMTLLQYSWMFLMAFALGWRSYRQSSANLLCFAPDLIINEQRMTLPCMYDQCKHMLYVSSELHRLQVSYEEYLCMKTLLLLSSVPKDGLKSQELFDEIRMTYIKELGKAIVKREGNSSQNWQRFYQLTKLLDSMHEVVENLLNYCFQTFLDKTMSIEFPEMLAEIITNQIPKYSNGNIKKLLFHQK
Assay: Transrepression Assay (GITAR), TNFα-β-lactamase reporter gene in U937 cells
Assay type: cell-based
Design: U937 cells contain an endogenous glucocorticoid receptor (GR); endogenous in cells; host or cells: U937 cells stably transfected with the TNF-α promoter/β-lactamase reporter only
Details: U-937; 100 nM dexamethasone = 100% activity; read-out: maximal activity in the transrepression assay
Excerpt: Transrepression Assay (GITAR)
This assay assesses the ability of test compounds to control transcription from the TNFα-β-lactamase reporter gene in U937 cells, a human myelomonocytic leukemia cell line that naturally expresses the human GR. The assay measures compound dependent-repression of the TNFa promoter linked to a reporter gene.
The human U937 cells that had been stably transfected with the TNF-α promoter driving β-lactamase are used for this assay. U937 cells contain an endogenous glucocorticoid receptor (GR). […] 50,000 cells/well are plated in 96 well black-walled plates the day of assay. Test compounds are added 10 μL/well, and cells are incubated at 37° C. for 30˜45 min. For assaying compounds, first dilute 1:10 in DMSO to make 1 mM, then further dilute 1:100 in medium to make 10× stock prior to adding to the cells. Add 50 ng/ml PMA (Sigma, cat# P8139) 10 μL/well to a final concentration 5 ng/ml, and 1 μg/ml LPS (Sigma, cat# L4130) 10 μL/well to a final concentration 100 ng/ml. Incubate cells at 370 C overnight for ˜18 hr. PMA is stored frozen as 100 μg/ml stock in DMSO. Dilute 1:10 in DMSO for a working stock of 10 μg/ml and store at −20 C. For assaying, dilute the 10 μg/ml working stock 1:200 in medium to make a 10× solution (50 ng/ml). Store frozen LPS at 1 mg/ml in PBS, dilute 1:1000 in medium to make 10× (1 μg/ml) for the assay. Add 6× loading buffer (CCF2-AM) 20 μL/well, and incubate at room temperature for 70˜90 min. […] The activity repressed by 100 nM dexamethasone alone is set as 100% activity.

Row | Compound | Emax
1 | C[C@]12Cc3cnn(-c4ccc(F)cc4)c3C=C1CC[C@@]2(O)CCc1cccc(F)c1CNS(=O)(=O)c1ccc(F)cc1F [Example 79, 2,4-difluoro-N-(2-fluoro-6-{2-[(4αS,5R)-1-(4-fluorophenyl)-5-hydroxy-4α-methyl-1,4,4α,5,6,7-hexahydrocyclopenta[f]indazol-5-yl]ethyl}benzyl)benzenesulfonamide] | 5 to 100%
2 | C[C@]12Cc3cnn(-c4ccc(F)cc4)c3C=C1CC[C@@]2(O)CCc1cccc(F)c1CNS(=O)(=O)c1ccccc1F [Example 80, 2-fluoro-N-(2-fluoro-6-{2-[(4αS,5R)-1-(4-fluorophenyl)-5-hydroxy-4α-methyl-1,4,4α,5,6,7-hexahydrocyclopenta[f]indazol-5-yl]ethyl}benzyl)benzenesulfonamide] | 5 to 100%
3 | C[C@]12Cc3cnn(-c4ccc(F)cc4)c3C=C1CC[C@@]2(O)CCc1cccc(F)c1CNS(=O)(=O)c1cccc(C#N)c1 [Example 81, 3-cyano-N-(2-fluoro-6-{2-[(4αS,5R)-1-(4-fluorophenyl)-5-hydroxy-4α-methyl-1,4,4α,5,6,7-hexahydrocyclopenta[f]indazol-5-yl]ethyl}benzyl)benzenesulfonamide] | 5 to 100%
4 | C[C@]12Cc3cnn(-c4ccc(F)cc4)c3C=C1CC[C@@]2(O)CCc1cccc(F)c1CNS(=O)(=O)c1cccnc1 [Example 82, N-(2-fluoro-6-{2-[(4αS,5R)-1-(4-fluorophenyl)-5-hydroxy-4α-methyl-1,4,4α,5,6,7-hexahydrocyclopenta[f]indazol-5-yl]ethyl}benzyl)pyridine-3-sulfonamide] | 5 to 100%
5 | C[C@]12Cc3cnn(-c4ccc(F)cc4)c3C=C1CC[C@@]2(O)CCc1ccccc1CNS(C)(=O)=O [Example 87, N-(2-{2-[(4αS,5R)-1-(4-fluorophenyl)-5-hydroxy-4α-methyl-1,4,4α,5,6,7-hexahydrocyclopenta[f]indazol-5-yl]ethyl}benzyl)methanesulfonamide] | 5 to 100%
6 | C[C@]12Cc3cnn(-c4ccc(F)cc4)c3C=C1CC[C@@]2(O)CCc1ccccc1CNS(=O)(=O)CC(F)(F)F [Example 90, 2,2,2-trifluoro-N-(2-{2-[(4αS,5R)-1-(4-fluorophenyl)-5-hydroxy-4α-methyl-1,4,4α,5,6,7-hexahydrocyclopenta[f]indazol-5-yl]ethyl}benzyl)ethanesulfonamide] | 5 to 100%
7 | C[C@]12Cc3cnn(-c4ccc(F)cc4)c3C=C1CC[C@@]2(O)CCc1cccc(F)c1CNS(=O)(=O)c1ccco1 [Example 92, N-(2-fluoro-6-{2-[(4αS,5R)-1-(4-fluorophenyl)-5-hydroxy-4α-methyl-1,4,4α,5,6,7-hexahydrocyclopenta[f]indazol-5-yl]ethyl}benzyl)furan-2-sulfonamide] | 5 to 100%
8 | Cn1cnc(S(=O)(=O)NCc2c(F)cccc2CC[C@]2(O)CCC3=Cc4c(cnn4-c4ccc(F)cc4)C[C@@]32C)c1 [Example 93, N-(2-fluoro-6-{2-[(4αS,5R)-1-(4-fluorophenyl)-5-hydroxy-4α-methyl-1,4,4α,5,6,7-hexahydrocyclopenta[f]indazol-5-yl]ethyl}benzyl)-1-methyl-1H-imidazole-4-sulfonamide] | 5 to 100%
9 | C[C@]12Cc3cnn(-c4ccc(F)cc4)c3C=C1CC[C@@]2(O)CCc1cccc(F)c1CNS(=O)(=O)c1ccccc1C#N [Example 94, 2-cyano-N-(2-fluoro-6-{2-[(4αS,5R)-1-(4-fluorophenyl)-5-hydroxy-4α-methyl-1,4,4α,5,6,7-hexahydrocyclopenta[f]indazol-5-yl]ethyl}benzyl)benzenesulfonamide] | 5 to 100%
10 | C[C@H](NS(=O)(=O)C1CC1)c1ccccc1CC[C@]1(O)CCC2=Cc3c(cnn3-c3ccc(F)cc3)C[C@@]21C [Example 95, N-[(1S)-1-(2-{2-[(4αS,5R)-1-(4-fluorophenyl)-5-hydroxy-4α-methyl-1,4,4α,5,6,7-hexahydrocyclopenta[f]indazol-5-yl]ethyl}phenyl)ethyl]cyclopropanesulfonamide] | 5 to 100%
11 | C[C@@H](NS(=O)(=O)CC(F)(F)F)c1c(F)cccc1CC[C@]1(O)CCC2=Cc3c(cnn3-c3ccc(F)cc3)C[C@@]21C [Example 96, 2,2,2-trifluoro-N-[(1R)-1-(2-fluoro-6-{2-[(4αS,5R)-1-(4-fluorophenyl)-5-hydroxy-4α-methyl-1,4,4α,5,6,7-hexahydrocyclopenta[f]indazol-5-yl]ethyl}phenyl)ethyl]ethanesulfonamide] | 5 to 100%
12 | C[C@]12Cc3cnn(-c4ccc(F)cc4)c3C=C1CC[C@@]2(O)CCc1cccc(F)c1CNS(=O)(=O)CS(C)(=O)=O [Example 97, N-(2-fluoro-6-{2-[(4αS,5R)-1-(4-fluorophenyl)-5-hydroxy-4α-methyl-1,4,4α,5,6,7-hexahydrocyclopenta[f]indazol-5-yl]ethyl}benzyl)-1-(methylsulfonyl)methanesulfonamide] | 5 to 100%
13 | C[C@]12Cc3cnn(-c4ccc(F)cc4)c3C=C1CC[C@@]2(O)CCc1cccc(F)c1CNS(C)(=O)=O [Example 98, N-(2-fluoro-6-{2-[(4αS,5R)-1-(4-fluorophenyl)-5-hydroxy-4α-methyl-1,4,4α,5,6,7-hexahydrocyclopenta[f]indazol-5-yl]ethyl}benzyl)methanesulfonamide] | 5 to 100%
14 | C[C@H](NS(=O)(=O)CC(F)(F)F)c1c(F)cccc1CC[C@]1(O)CCC2=Cc3c(cnn3-c3ccc(F)cc3)C[C@@]21C [Example 99, 2,2,2-trifluoro-N-[(1S)-1-(2-fluoro-6-{2-[(4αS,5R)-1-(4-fluorophenyl)-5-hydroxy-4α-methyl-1,4,4α,5,6,7-hexahydrocyclopenta[f]indazol-5-yl]ethyl}phenyl)ethyl]ethanesulfonamide] | 5 to 100%
15 | C[C@]12Cc3cnn(-c4ccc(F)cc4)c3C=C1CC[C@@]2(O)CCc1cccc(F)c1C1(NS(=O)(=O)C2CC2)CC1 [Example 100, N-[1-(2-fluoro-6-{2-[(4αS,5R)-1-(4-fluorophenyl)-5-hydroxy-4α-methyl-1,4,4α,5,6,7-hexahydrocyclopenta[f]indazol-5-yl]ethyl}phenyl)cyclopropyl]cyclopropanesulfonamide] | 5 to 100%
16 | C[C@]12Cc3cnn(-c4ccc(F)cc4)c3C=C1CC[C@@]2(O)CCc1cccc(F)c1[C@@H](NS(=O)(=O)CC(F)(F)F)C(F)(F)F [Example 101, 2,2,2-trifluoro-N-[(1R)-2,2,2-trifluoro-1-(2-fluoro-6-{2-[(4αS,5R)-1-(4-fluorophenyl)-5-hydroxy-4α-methyl-1,4,4α,5,6,7-hexahydrocyclopenta[f]indazol-5-yl]ethyl}phenyl)ethyl]ethanesulfonamide] | 5 to 100%
17 | C[C@]12Cc3cnn(-c4ccc(F)cc4)c3C=C1CC[C@@]2(O)CCc1cccc(F)c1C1(NS(=O)(=O)CC(F)(F)F)CC1 [Example 102, 2,2,2-trifluoro-N-[1-(2-fluoro-6-{2-[(4αS,5R)-1-(4-fluorophenyl)-5-hydroxy-4α-methyl-1,4,4α,5,6,7-hexahydrocyclopenta[f]indazol-5-102yl]ethyl}phenyl)cyclopropyl]ethanesulfonamide] | 5 to 100%
18 | C[C@]12Cc3cnn(-c4ccc(F)cc4)c3C=C1CC[C@@]2(O)CCc1ccccc1CNCC1CC1 [Example 103, (4αS,5R)-5-[2-(2-{[(cyclopropylmethyl}amino]methyl}phenyl)ethyl]-1-(4-fluorophenyl)-4α-methyl-1,4,4α,5,6,7-hexahydrocyclopenta[f]indazol-5-ol] | 5 to 100%
